Laboratory results reported in patent publication US12472171B2, “Methods for treating hypercholesterolemia” (BIOGEN MA INC., priority 2020, dated 2025).

How the values were obtained:
healthy volunteers [1] = test: 28-day once-daily dosing study in healthy volunteers (Study 1), circulating total cholesterol and oxysterols; format: in vivo, human
Method: Forty-two healthy volunteers received Compound 1 QD for 28 days (or before early withdrawal), with 6 individual participants per cohort receiving 1 mg (Cohort 1), 3 mg (Cohort 2), 10 mg (Cohort 3), 30 mg (Cohort 4), 60 mg loading dose with 10 mg maintenance dosing (Cohort 5) Compound 1, 60 mg (Cohort 6), or 90 mg loading dose on Day 1 and Day 2 with 30 mg maintenance dosing (Cohort 7). There were also 14 participants who received placebo in the study; 1 participant in Cohort 4 was misdosed on Day 19 and appeared to have received at least one 30 mg dose of Compound 1. The following protocol deviations were reported for participants in Cohorts 1 through 5: they received predose water ad lib (not restricted for 1 hour before and 1 hour after dose) and a meal administered 30 minutes postdose (not 4 hours postdose). A total of 49 participants completed treatment, including 37 participants who received active treatment.
Participants received the first dose of study treatment (Compound 1 or placebo) on Day 1 and continued to receive once-daily study treatment through Day 28. Participants remained in the clinic throughout the dosing period. Participants were discharged on Day 29 after completing all assessments.
Blood was periodically withdrawn from each volunteer and immediately stored at −80° C. For measuring metabolite concentrations in human serum, the samples were centrifuged and the resulting supernatant was used for further analysis.
Free oxysterols were extracted from the samples with methanol using the Biocrates Kit filter plate. The plate was loaded with an internal standard mixture beforehand. The metabolite concentrations were determined by UHPLC-MS/MS with multiple reaction monitoring (MRM) in a positive mode using a SCIEX API 5500 QTRAP® (AB SCIEX, Darmstadt, German) instrument with electrospray ionization (ESI). Data were quantitated using appropriate mass spectrometry software and imported in Biocrates Met/DQ™ software for further analysis.

healthy volunteers [2] = test: Population PK/PD model (Monolix) of circulating cholesterol versus Compound 1 plasma concentration, from three phase I studies; set-up: species or system human
Method: FIG. 2 is a bar graph showing predicted steady-state concentrations of circulating cholesterol levels during treatment with Compound 1 for subject administered placebo, 1 mg, 3 mg, 10 mg, 30 mg or 60 mg per day of Compound 1 at pharmacodynamic steady-state. The predicted concentrations are from simulations based on data from three phase I trials of Compound 1.
Based on these observations, a population PK/PD model was developed using Monolix to describe circulating cholesterol concentration as a function of plasma concentration of Compound 1 and exposure. The model was developed from cholesterol data from the study described above (Study 1) as well as two additional clinical studies (Study 2 and Study 3) in healthy volunteers. In Study 2, thirty healthy volunteers received a single oral dose of Compound 1 with 6 individual participants per cohort receiving 3 mg (Cohort 1), 10 mg (Cohort 2), 30 mg (Cohort 3), 60 mg (Cohort 4), 100 mg (Cohort 5). There were also 9 participants who received placebo in the study. In Study 3, 8 healthy adult volunteers received a single dose of 30 mg of Compound 1.

rat OPCs = test: Sterol levels (Metabolon HD4) in rat OPC cultures treated with Compound 1; format: cell-based; conditions: rat OPC culture
Method: Enriched populations of oligodendrocytes from female Sprague Dawley postnatal day 2 (P2) rats were grown in culture. Briefly, the forebrain was dissected and placed in Hank's buffered salt solution (HBSS) (Life technologies). The tissue was cut into 1 mm fragments and incubated at 37° C. for 15 min in 0.01% trypsin and 10 μg/ml DNase. Dissociated cells were plated on poly-D-lysine (PDL)-coated T75 tissue culture flasks and grown at 37° C. for 10 days in Dulbecco's Modified Eagle Medium (DMEM) with 20% fetal calf serum (Life technologies). Oligodendrocyte precursors (A2B5+) were collected by shaking the flask overnight at 200 rpm at 37° C., resulting in a 95% pure population. Cultures were maintained in a defined growth medium (high glucose DMEM, 0.1% BSA, 50 ug/ml Apo-transferrin, 5 ug/ml insulin, 30 nM sodium selenite, 10 nM biotin and hydrocortisone) with 10 ng/ml fibroblast growth factor/platelet-derived growth factor (FGF/PDGF) (Peprotech) for 2-3 days. For assessing the ability of Compound 1 to promote the differentiation of rat A2B5+ progenitor cells into mature myelin basic protein positive (MBP+) myelinating oligodendrocytes, A2B5+ cells were plated into 10-cm PDL coated culture plates in FGF/PDGF free growth medium supplemented with 10 ng/ml CNTF and 15 nM T3 and were immediately treated for with Compound 1. The cell pellets were collected at 24 hours and 72 hours in culture and stored at −80° C. The cell pellets were subsequently shipped to Metabolon (Morrisville, NC, USA) and maintained at −80° C. during shipping and storage until processed. The cell pellet samples were extracted with methanol under vigorous shaking for 2 min (Glen Mills GenoGrinder 2000) to precipitate protein and dissociate small molecules bound to protein or trapped in the precipitated protein matrix, followed by centrifugation to recover chemically diverse metabolites. The resulting extract were next aliquot and analyzed on Metabolon's HD4 platform. Several types of quality control samples, including recovery standards added prior to extraction, technical replicates from a pool combined from each experimental sample, process and solvent blanks, and spiked a cocktail of QC standards, were applied during sample preparation and analysis for quality assessment and filtering failed samples.

SMILES: CC[C@H]1CC[C@@H](Oc2ccc3cc(CN4CCC(C(=O)O)CC4)ccc3c2)CC1 [Compound 1, 1-((6-(((1s,4s)-4-ethylcyclohexyl)oxy)naphthalen-2-yl)methyl)piperidine-4-carboxylic acid]
- accumulation of 7-dehydrocholesterol (7-DHC) (healthy volunteers [1]; healthy human volunteers): causes accumulation of 7-dehydrocholesterol (7-DHC)
- average decrease in total cholesterol (healthy volunteers [1]; healthy volunteers, 60 mg dose, Study 1): approximately 20%
- reduction in total circulating cholesterol (healthy volunteers [1]; healthy volunteers, QD for 28 days, FIG. 1): gradual, time- and dose-dependent reduction in total circulating cholesterol
- model-predicted decrease of circulating cholesterol (healthy volunteers [2]; 60 mg QD, steady state): approximately 35%
- predicted time for circulating cholesterol to return to baseline after discontinuation (healthy volunteers [2]; after discontinuation of treatment): ≤ 30 days
- steady-state concentration of Compound 1 (healthy volunteers [2]; daily dose of 60 mg): about 3 μg/mL
- time of increase to steady-state concentrations of Compound 1 in plasma (healthy volunteers [2]; daily dosing, cholesterol reduction predicted over the same time frame): approximately 15 days
- EC50 for reduction in circulating cholesterol concentration (healthy volunteers [2]; plasma concentration of Compound 1, population PK/PD model): about 3 μg/mL
- circulating cholesterol concentration in the model by daily dose (healthy volunteers [2]; population PK/PD model): reduced at all daily doses higher than 10 mg
- 7-DHC versus vehicle control (rat OPCs; 24 hours): 8.3 folds
- cholesterol versus vehicle control (rat OPCs; 24 hours): 0.64 folds
- desmosterol versus vehicle control (rat OPCs; 24 hours): 0.44 folds
- 7-DHC versus vehicle control (rat OPCs; 72 hours): 12.86 folds
- cholesterol versus vehicle control (rat OPCs; 72 hours): insignificant change
- desmosterol versus vehicle control (rat OPCs; 72 hours): 0.4 folds
